Test results: paper PMC5794219 (SLAS discovery : advancing life sciences R & D, 2017)

Tests used:
E. coli HisRS = conditions: cited from earlier work
P. aeruginosa HisRS = biological target: T1, P. aeruginosa HisRS (Pseudomonas aeruginosa, UniProt Q9HXJ5); test: ATP:PPi exchange reactions; format: biochemical; conditions: substrate varied, other substrate constant at 2 mM
T1 sequence (Q9HXJ5 1-429): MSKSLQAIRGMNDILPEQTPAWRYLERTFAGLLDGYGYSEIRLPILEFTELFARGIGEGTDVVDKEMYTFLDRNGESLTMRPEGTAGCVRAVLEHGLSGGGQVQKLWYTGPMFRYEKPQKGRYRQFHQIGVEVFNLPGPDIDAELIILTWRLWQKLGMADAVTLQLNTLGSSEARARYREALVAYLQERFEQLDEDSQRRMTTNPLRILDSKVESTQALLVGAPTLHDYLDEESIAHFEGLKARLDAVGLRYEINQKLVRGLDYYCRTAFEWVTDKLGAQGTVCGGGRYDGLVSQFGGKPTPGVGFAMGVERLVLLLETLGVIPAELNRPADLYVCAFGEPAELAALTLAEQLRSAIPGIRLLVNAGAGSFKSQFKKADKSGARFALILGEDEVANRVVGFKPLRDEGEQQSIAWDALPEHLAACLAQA

[1] = substrate: N[C@@H](Cc1c[nH]cn1)C(=O)O; test: ATP:PPi exchange reactions; format: biochemical, Pseudomonas aeruginosa; conditions: other: substrate varied, other substrate constant at 2 mM; pH 7.5; 37.0 °C
[2] = substrate: Nc1ncnc2c1ncn2[C@@H]1O[C@H](COP(=O)(O)OP(=O)(O)OP(=O)(O)O)[C@@H](O)[C@H]1O; test: ATP:[32P]PPi exchange at pH 7.5, 37 °C, 0.05 µM HisRS, ATP varied; format: biochemical

## Nc1ncnc2c1ncn2[C@@H]1O[C@H](COP(=O)(O)OP(=O)(O)OP(=O)(O)O)[C@@H](O)[C@H]1O [ATP]
E. coli HisRS; E. coli HisRS ref 12
  Km: 890 µM
E. coli HisRS; E. coli HisRS, interaction with ATP ref 24
  kcat: 34 s⁻¹
P. aeruginosa HisRS
  Km: 298 µM
  kcat (turnover number): 16.8 s⁻¹

## N[C@@H](Cc1c[nH]cn1)C(=O)O [histidine]
E. coli HisRS; E. coli HisRS, interaction with His, different research groups ref 24, 25
  turnover: 7 to 142 s⁻¹

B1: P. aeruginosa HisRS (Pseudomonas aeruginosa PAO1) (protein)
chain: MSKSLQAIRGMNDILPEQTPAWRYLERTFAGLLDGYGYSEIRLPILEFTELFARGIGEGTDVVDKEMYTFLDRNGESLTMRPEGTAGCVRAVLEHGLSGGGQVQKLWYTGPMFRYEKPQKGRYRQFHQIGVEVFNLPGPDIDAELIILTWRLWQKLGMADAVTLQLNTLGSSEARARYREALVAYLQERFEQLDEDSQRRMTTNPLRILDSKVESTQALLVGAPTLHDYLDEESIAHFEGLKARLDAVGLRYEINQKLVRGLDYYCRTAFEWVTDKLGAQGTVCGGGRYDGLVSQFGGKPTPGVGFAMGVERLVLLLETLGVIPAELNRPADLYVCAFGEPAELAALTLAEQLRSAIPGIRLLVNAGAGSFKSQFKKADKSGARFALILGEDEVANRVVGFKPLRDEGEQQSIAWDALPEHLAACLAQA
[1]
  Km: 37.6 µM
  kcat: 8.32 s⁻¹
[2]
  Km: 298.5 µM
